This note sets out measurements from patent US20260015350A1, “AZAQUINAZOLINE PAN-KRAS INHIBITORS” (Mirati Therapeutics, Inc., priority 2022, published 2026).

In one test the target is T1, KRas^WT (Homo sapiens, UniProt P01116).
T1 construct: Biotinylated KRas (corresponding to amino acids 1-169, produced at Accelegan Inc.); biotin (biotinylated); purchased Accelegan Inc
As to the kind of experiment: KRas binding assay (TR-FRET tracer displacement), KRas WT. The conditions noted are these: for inhibition at 0.01 µM: single point, 10 nM compound, TR-FRET.

The target of the next test is T2, KRas^G12A (Homo sapiens, UniProt P01116, G12A).
T2 construct: Biotinylated KRas (corresponding to amino acids 1-169, produced at Accelegan Inc.); biotin (biotinylated); purchased Accelegan Inc
T2 sequence (P01116 1-169 isoform P01116-2 G12A): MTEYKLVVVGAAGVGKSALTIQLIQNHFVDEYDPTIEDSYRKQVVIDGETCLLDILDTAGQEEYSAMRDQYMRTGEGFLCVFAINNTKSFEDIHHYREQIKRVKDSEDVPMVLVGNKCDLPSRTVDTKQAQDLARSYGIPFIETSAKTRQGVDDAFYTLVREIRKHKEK
As to the kind of experiment: KRas binding assay (TR-FRET tracer displacement), KRas G12A. Conditions: for inhibition at 0.01 µM: single point, 10 nM compound, TR-FRET.

The target of the next test is T3, KRas^G12C (Homo sapiens, UniProt P01116, G12C).
T3 construct: Biotinylated KRas (corresponding to amino acids 1-169, produced at Accelegan Inc.); biotin (biotinylated); purchased Accelegan Inc
T3 sequence (P01116 1-169 isoform P01116-2 G12C): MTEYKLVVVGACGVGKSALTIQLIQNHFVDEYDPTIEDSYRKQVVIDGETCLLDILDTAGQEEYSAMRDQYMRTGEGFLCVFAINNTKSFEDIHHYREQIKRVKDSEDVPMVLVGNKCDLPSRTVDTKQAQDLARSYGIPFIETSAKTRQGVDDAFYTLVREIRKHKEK
As to the kind of experiment: KRas binding assay (TR-FRET tracer displacement), KRas G12C. The conditions noted are these: for inhibition at 0.01 µM: single point, 10 nM compound, TR-FRET.

Another test has as its target T4, KRas^G12D (Homo sapiens, UniProt P01116, G12D).
T4 construct: Biotinylated KRas (corresponding to amino acids 1-169, produced at Accelegan Inc.); biotin (biotinylated); purchased Accelegan Inc
In words: KRas binding assay (TR-FRET tracer displacement), KRas G12D.

The target in a further test is T5, KRas^G12R (Homo sapiens, UniProt P01116, G12R).
T5 construct: Biotinylated KRas (corresponding to amino acids 1-169, produced at Accelegan Inc.); biotin (biotinylated); purchased Accelegan Inc
T5 sequence (P01116 1-169 isoform P01116-2 G12R): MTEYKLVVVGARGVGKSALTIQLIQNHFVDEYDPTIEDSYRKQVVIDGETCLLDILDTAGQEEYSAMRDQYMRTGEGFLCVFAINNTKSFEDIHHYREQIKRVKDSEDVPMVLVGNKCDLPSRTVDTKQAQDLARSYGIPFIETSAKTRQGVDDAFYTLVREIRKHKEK
In words: KRas binding assay (TR-FRET tracer displacement), KRas G12R.

The target in the next test is T6, KRas^G12S (Homo sapiens, UniProt P01116, G12S).
T6 construct: Biotinylated KRas (corresponding to amino acids 1-169, produced at Accelegan Inc.); biotin (biotinylated); purchased Accelegan Inc
T6 sequence (P01116 1-169 isoform P01116-2 G12S): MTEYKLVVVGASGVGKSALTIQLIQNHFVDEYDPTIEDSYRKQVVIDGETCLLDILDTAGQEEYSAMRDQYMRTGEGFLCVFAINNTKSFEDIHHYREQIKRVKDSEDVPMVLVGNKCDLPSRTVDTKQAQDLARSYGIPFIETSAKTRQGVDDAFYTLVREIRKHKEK
In words: KRas binding assay (TR-FRET tracer displacement), KRas G12S. Conditions: for inhibition at 0.01 µM: single point, 10 nM compound, TR-FRET.

For a further test, the target named is T7, KRas^G12V (Homo sapiens, UniProt P01116, G12V).
T7 construct: Biotinylated KRas (corresponding to amino acids 1-169, produced at Accelegan Inc.); biotin (biotinylated); purchased Accelegan Inc
T7 sequence (P01116 1-169 isoform P01116-2 G12V): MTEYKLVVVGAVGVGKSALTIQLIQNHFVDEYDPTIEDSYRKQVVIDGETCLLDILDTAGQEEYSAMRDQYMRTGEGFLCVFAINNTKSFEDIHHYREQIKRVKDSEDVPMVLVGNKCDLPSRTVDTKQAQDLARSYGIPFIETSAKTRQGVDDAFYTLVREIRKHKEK
In words: KRas binding assay (TR-FRET tracer displacement), KRas G12V.

The target in a further test is T8, KRas^G13D (Homo sapiens, UniProt P01116, G13D).
T8 construct: Biotinylated KRas (corresponding to amino acids 1-169, produced at Accelegan Inc.); biotin (biotinylated); purchased Accelegan Inc
T8 sequence (P01116 1-169 isoform P01116-2 G13D): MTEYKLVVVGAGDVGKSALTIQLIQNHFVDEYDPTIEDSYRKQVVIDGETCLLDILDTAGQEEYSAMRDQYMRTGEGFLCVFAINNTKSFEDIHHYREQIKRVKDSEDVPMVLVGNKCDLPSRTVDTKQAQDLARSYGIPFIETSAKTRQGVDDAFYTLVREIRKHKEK
In words: KRas binding assay (TR-FRET tracer displacement), KRas G13D. Conditions: for inhibition at 0.01 µM: single point, 10 nM compound, TR-FRET.

A further test has as its target T9, KRas^Q61H (Homo sapiens, UniProt P01116, Q61H).
T9 construct: Biotinylated KRas (corresponding to amino acids 1-169, produced at Accelegan Inc.); biotin (biotinylated); purchased Accelegan Inc
In words: KRas binding assay (TR-FRET tracer displacement), KRas Q61H. Conditions: for inhibition at 0.01 µM: single point, 10 nM compound, TR-FRET.

For test [1], the system named is KRas-mediated phosphorylation of ERK in MKN1 cells. In words: Inhibition of KRas-mediated phosphorylation of ERK (Cisbio HTRF pERK), MKN1 cells. The class given is cell-based. The conditions noted are these: Homo sapiens, MKN-1. In short, it runs like this:
(§1)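 Overnight culture at 37° C./5% CO2 in RPMI containing 10% FBS, seeded 6,000 cells per well, preceded the assay. A covered 4-hour incubation at room temperature followed, then HTRF signal for phosphorylated ERK was measured.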

Test [2] relates to KRas-mediated phosphorylation of ERK in PSN1 cells. As to the kind of experiment: Inhibition of KRas-mediated phosphorylation of ERK (Cisbio HTRF pERK), PSN1 cells. The conditions noted are these: Homo sapiens. The class given is cell-based. The procedure, abridged: as §1
For test [3], the system named is KRas-mediated phosphorylation of ERK in AsPC-1 cells. In words: Inhibition of KRas-mediated phosphorylation of ERK (Cisbio HTRF pERK), AsPC-1 cells. Conditions: Homo sapiens, ASPC1, AsPC-1 cells; HTRF pERK. It counts as cell-based. In short, it runs like this: (§2)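 Min control wells contained 0.2 uM Trametinib, while test compounds ran as 10 doses (3-fold, top 10 uM; 0.8% DMSO final) on cells for 3 hrs. After 40 mins lysis at 4° C, lysates were probed with HTRF antibodies for 2 hrs at room temperature.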

Test [4] concerns KRas-mediated phosphorylation of ERK in H727 cells. In words: Inhibition of KRas-mediated phosphorylation of ERK (Cisbio HTRF pERK), H727 cells. It counts as cell-based. The conditions noted are these: Homo sapiens, NCI-H727, H727 cells; HTRF pERK. In short, it runs like this: as §2
The test system of test [5] is KRas-mediated phosphorylation of ERK in A549 cells. In words: Inhibition of KRas-mediated phosphorylation of ERK (Cisbio HTRF pERK), A549 cells. The class given is cell-based. The conditions noted are these: Homo sapiens, HTRF pERK. In short, it runs like this:
(§3)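 HTRF readout of phospho-ERK in cell lysates after 3 hrs of compound exposure. Dosing: 10 uM top, 3-fold steps, 10 doses, final DMSO 0.8%. Min control: 0.2 uM Trametinib. Lysis ran 40 mins at 4° C, and antibody detection 2 hrs at room temperature.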

For test [6], the system named is KRas-mediated phosphorylation of ERK in H460 cells. As to the kind of experiment: Inhibition of KRas-mediated phosphorylation of ERK (Cisbio HTRF pERK), H460 cells. It counts as cell-based. Conditions: Homo sapiens; for inhibition at 0.1 µM: NCI-H460, 3 h, single point, 100 nM compound, 3 hrs; for IC50: NCI-H460, HTRF pERK. In short, it runs like this:
as §2

Test [7] has as its system KRas-mediated phosphorylation of ERK in HCT116 cells. As to the kind of experiment: Inhibition of KRas-mediated phosphorylation of ERK (Cisbio HTRF pERK), HCT116 cells. The class given is cell-based. The conditions noted are these: Homo sapiens; for inhibition at 0.1 µM: HCT-116, 3 h, single point, 100 nM compound, 3 hrs; for IC50: HCT-116, HTRF pERK. In short, it runs like this:
as §3

Bounds are passed on as bounds.

T4 sequence (P01116 1-169 isoform P01116-2 G12D): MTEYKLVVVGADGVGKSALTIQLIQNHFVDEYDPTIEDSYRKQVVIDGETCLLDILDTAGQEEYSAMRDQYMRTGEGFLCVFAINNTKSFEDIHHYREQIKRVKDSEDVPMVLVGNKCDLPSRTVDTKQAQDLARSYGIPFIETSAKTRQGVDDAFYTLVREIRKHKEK
T9 sequence (P01116 1-169 isoform P01116-2 Q61H): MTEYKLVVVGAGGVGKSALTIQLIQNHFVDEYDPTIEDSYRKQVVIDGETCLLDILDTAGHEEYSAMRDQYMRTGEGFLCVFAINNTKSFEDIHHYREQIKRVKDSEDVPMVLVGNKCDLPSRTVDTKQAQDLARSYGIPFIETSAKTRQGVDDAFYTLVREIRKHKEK
T1 sequence (P01116 1-169 isoform P01116-2): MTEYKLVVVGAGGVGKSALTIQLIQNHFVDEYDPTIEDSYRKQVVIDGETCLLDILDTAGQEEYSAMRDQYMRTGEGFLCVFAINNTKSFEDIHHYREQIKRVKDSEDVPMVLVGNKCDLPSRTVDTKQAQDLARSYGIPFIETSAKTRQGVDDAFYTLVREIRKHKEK

For `CCc1c(F)ccc2cc(O)cc(-c3ncc4c(N5CCOCC(C)(O)C5)nc(OCC56CCCN5[C@H](COC(=O)N(C)C)CC6)nc4c3F)c12` (stereo in doubt) [Example 710, ((3S,7aR)-7a-(((7-(8-ethyl-7-fluoro-3-hydroxynaphthalen-1-yl)-8-fluoro-4-(6-hydroxy-6-methyl-1,4-oxazepan-4-yl)pyrido[4,3-d]pyrimidin-2-yl)oxy)methyl)hexahydro-1H-pyrrolizin-3-yl)methyl dimethylcarbamate], the inhibition at 0.01 µM at KRas^WT stood at 80%; on KRas^G12A it was 74%; on KRas^G12C it was 88%; on KRas^G12S, 83%; on KRas^G13D it was 86%; at KRas^Q61H, 88%. The IC50 at KRas^G12D is 2 nM; at KRas^G12R, 4 nM; on KRas^G12V it was 3 nM; in [1], 25 nM; in test [2], 2610 nM; in test [3], 22 nM. Moreover, the IC50 stood at 49 nM in test [4] and 47 nM in [5]. For the same molecule, the inhibition at 0.1 µM in [6] was determined as 66%; in test [7], 37%.

Turning to `CCc1c(F)ccc2cc(O)cc(-c3ncc4c(N5CCCn6nncc6C5)nc(OC[C@@]56CCCN5C[C@H](F)C6)nc4c3F)c12` [Example 562, 4-(4-(7,8-dihydro-4H-[1,2,3]triazolo[1,5-a][1,4]diazepin-5(6H)-yl)-8-fluoro-2-(((2R,7aS)-2-fluorohexahydro-1H-pyrrolizin-7a-yl)methoxy)pyrido[4,3-d]pyrimidin-7-yl)-5-ethyl-6-fluoronaphthalen-2-ol], the inhibition at 0.01 µM on KRas^WT stood at 62%; at KRas^G12A it was 59%; at KRas^G12C, 76%; at KRas^G12S, 81%; at KRas^G13D, 69%; on KRas^Q61H, 67%. In addition, the concentration for half-maximal inhibition (IC50) is less than 2 nM at KRas^G12D; 3 nM at KRas^G12R; 3 nM at KRas^G12V; 35 nM in [1]; greater than 10000 nM in [2]; 76 nM in test [3]. Also, the half-inhibitory concentration (IC50) in test [4] worked out at 217 nM; in [5], 496 nM; in test [6] it was 438 nM; in test [7], 1060 nM.

`CCc1c(F)ccc2cc(O)cc(-c3ncc4c(N5C[C@@H]6C[C@H](C5)[C@H](O)[C@@H]6O)nc(OC[C@@]56CCCN5C[C@H](F)C6)nc4c3F)c12` [Example 568, (1R,5S,6R,7S)-3-(7-(8-ethyl-7-fluoro-3-hydroxynaphthalen-1-yl)-8-fluoro-2-(((2R,7aS)-2-fluorohexahydro-1H-pyrrolizin-7a-yl)methoxy)pyrido[4,3-d]pyrimidin-4-yl)-3-azabicyclo[3.2.1]octane-6,7-diol]: the inhibition at 0.01 µM on KRas^WT turned out to be 97%; on KRas^G12A, 94%; on KRas^G12C, 96%; at KRas^G12S, 98%; on KRas^G13D, 98%; on KRas^Q61H, 98%. Moreover, the IC50 is less than 2 nM on KRas^G12D; less than 2 nM at KRas^G12R; less than 2 nM at KRas^G12V; 2 nM in [1]; 1380 nM in test [2]; 62 nM in test [3]. The concentration for half-maximal inhibition (IC50) in [4] is 33 nM; in test [5], 19 nM; in [6], 17 nM; in [7], 29 nM.

Take `CCc1c(F)ccc2cc(O)cc(-c3ncc4c(N5CCC(O)C(F)(F)CC5)nc(OC[C@@]56CCCN5C[C@H](F)C6)nc4c3F)c12` (stereo partly drawn) [Example 586, 1-(7-(8-ethyl-7-fluoro-3-hydroxynaphthalen-1-yl)-8-fluoro-2-(((2R,7aS)-2-fluorotetrahydro-1H-pyrrolizin-7a(5H)-yl)methoxy)pyrido[4,3-d]pyrimidin-4-yl)-5,5-difluoroazepan-4-ol]: the inhibition at 0.01 µM on KRas^WT is 91%; on KRas^G12A it was 91%; on KRas^G12C, 93%; on KRas^G12S, 93%; on KRas^G13D, 93%; on KRas^Q61H, 90%. The IC50 on KRas^G12D was 6 nM; on KRas^G12R it was 4 nM; at KRas^G12V, 3 nM; in test [1], 25 nM; in test [2], 3770 nM; in [3], 94 nM. Further, the half-maximal inhibitory concentration (IC50) was 85 nM in test [4] and 65 nM in [5]. The figures for the inhibition at 0.1 µM in [6] and in [7] were 56% and 42%, respectively.

As for `CCc1c(F)ccc2cc(O)cc(-c3ncc4c(N5CCCC6(CC(O)C6)C5)nc(OCC5(CN(C)C)CC5)nc4c3F)c12` (centres unmarked) [Example 698, 6-(2-((1-((dimethylamino)methyl)cyclopropyl)methoxy)-7-(8-ethyl-7-fluoro-3-hydroxynaphthalen-1-yl)-8-fluoropyrido[4,3-d]pyrimidin-4-yl)-6-azaspiro[3.5]nonan-2-ol], the inhibition at 0.01 µM worked out at 82% at KRas^WT; 77% on KRas^G12A; 91% at KRas^G12C; 86% on KRas^G12S; 84% at KRas^G13D; 88% on KRas^Q61H. Also, the IC50 on KRas^G12D was 2 nM; on KRas^G12R it was less than 2 nM; at KRas^G12V it was less than 2 nM; in test [1], 17 nM; in [2], 4150 nM; in test [3], 87 nM. Besides, the IC50 was 68 nM in test [4], 141 nM in [5], 72 nM in test [6] and 188 nM in [7].

In the case of `CN(C)C(=O)c1cc2n(n1)CCCN(c1nc(OC[C@@]34CCCN3C[C@H](F)C4)nc3c(F)c(-c4c5ccccc5cc5[nH]ncc45)ncc13)C2` [Example 761, 5-(7-(1H-benzo[f]indazol-4-yl)-8-fluoro-2-(((2R,7aS)-2-fluorohexahydro-1H-pyrrolizin-7a-yl)methoxy)pyrido[4,3-d]pyrimidin-4-yl)-N,N-dimethyl-5,6,7,8-tetrahydro-4H-pyrazolo[1,5-a][1,4]diazepine-2-carboxamide], the half-maximal inhibitory concentration (IC50) on KRas^WT (TR-FRET tracer displacement, KRas WT) amounted to 106 nM; at KRas^G12A (TR-FRET tracer displacement, KRas G12A), 65 nM; at KRas^G12C (TR-FRET tracer displacement, KRas G12C), 41 nM; on KRas^G12D it was 8 nM; on KRas^G12R, 74 nM; at KRas^G12S (TR-FRET tracer displacement, KRas G12S), 33 nM. Further, the IC50 on KRas^G12V was 23 nM; at KRas^G13D (TR-FRET tracer displacement, KRas G13D) it was 177 nM; at KRas^Q61H (TR-FRET tracer displacement, KRas Q61H), 151 nM; in [1], greater than 10000 nM; in test [2], greater than 10000 nM; in test [3], 4320 nM. This molecule showed an IC50 in test [4] of 1280 nM. The inhibition at 0.1 µM in test [6] is 11%; in [7], -13%.
